Source: ChEMBL document CHEMBL6115031, “Structure-Based Optimization of Moracin M as Potent and Selective PDE4 Inhibitors with Antipsoriasis Effects” (J Med Chem, 2025)
Calls of active or inactive are those of the source. The rule behind the calls is not given here.

Assays:
[1] = target: High affinity 3',5'-cyclic-AMP phosphodiesterase 7A (Homo sapiens, UniProt Q13946); assay: Inhibition of PDE7A1 (130 to 482 residues) (unknown origin) extracted from Escherichia coli BL21 cells using 3H-cAMP/3H-cGMP as substrate preincubated with compound for 15 mins followed by substrate addition by liquid scintillation counter
Sequence of High affinity 3',5'-cyclic-AMP phosphodiesterase 7A (Q13946 whole entry, the tested form may be a part): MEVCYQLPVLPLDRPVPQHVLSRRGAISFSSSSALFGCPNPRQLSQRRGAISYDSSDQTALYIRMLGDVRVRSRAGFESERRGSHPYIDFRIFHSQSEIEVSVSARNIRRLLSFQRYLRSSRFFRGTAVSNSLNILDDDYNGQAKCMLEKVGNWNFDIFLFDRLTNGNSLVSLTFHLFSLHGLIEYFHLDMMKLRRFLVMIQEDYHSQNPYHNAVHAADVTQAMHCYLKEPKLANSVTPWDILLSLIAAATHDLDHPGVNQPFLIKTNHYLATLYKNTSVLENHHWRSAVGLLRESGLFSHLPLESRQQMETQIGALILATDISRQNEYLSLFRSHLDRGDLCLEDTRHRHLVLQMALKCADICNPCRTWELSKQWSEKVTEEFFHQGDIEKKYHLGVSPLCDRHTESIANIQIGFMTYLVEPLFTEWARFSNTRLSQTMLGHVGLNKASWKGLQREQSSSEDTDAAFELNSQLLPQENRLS

Mus musculus [2] = assay: Anti-psoriasis effect in IMQ-induced female BALB/c mouse assessed as change in weight of spleen at 20 mg/kg administered topically as 0.3 % ointment pretreated with IMQ for 6 hrs followed by compound addition once daily for 7 days by H and E staining based analysis; assay type: functional, organism-based; conditions: time 7.0 day
[3] = target: cGMP-specific 3',5'-cyclic phosphodiesterase (Homo sapiens, UniProt O76074); assay: Inhibition of PDE5A1 (535 to 860 residues) (unknown origin) extracted from Escherichia coli BL21 cells using 3H-cAMP/3H-cGMP as substrate preincubated with compound for 15 mins followed by substrate addition by liquid scintillation counter
RAW264.7 [4] = assay: Anti-inflammatory activity in LPS-stimulated mouse RAW264.7 cells assessed as reduction in IL-6 mRNA level pretreated with compound for 2 hrs followed by LPS stimulation and measured after 6 hrs by q-PCR analysis; assay type: functional, cell-based; conditions: dose 5-20 µM, time 8.0 hrs
Mus musculus [5] = assay: Anti-psoriasis effect in IMQ-induced female BALB/c mouse assessed as decrease in skin thickness at 20 mg/kg administered topically as 0.3 % ointment pretreated with IMQ for 6 hrs followed by compound addition once daily for 7 days; assay type: functional, organism-based; conditions: time 7.0 day
Mus musculus [6] = assay: Anti-psoriasis effect in IMQ-induced female BALB/c mouse model assessed as reduction in fibroblast proliferation at 20 mg/kg administered topically as 0.3 % ointment pretreated with IMQ for 6 hrs followed by compound addition once daily for 7 days by H and E staining based analysis; assay type: functional, organism-based; conditions: time 7.0 day
HaCaT [7] = assay: Anti-inflammatory activity in M5- stimulated human HaCaT cells assessed as reduction in CXCL-2 mRNA level incubated for 24 hrs by q-PCR analysis; assay type: functional, cell-based; conditions: dose 5-20 µM
[8] = Drug absorption in rat skin assessed as skin permeability by measuring steady-state transdermal flux administered topically as 0.3% ointment at 100 mg by HPLC analysis; assay type: ADME, tissue-based, Skin of body; conditions: in vivo, topical_or_ocular
Mus musculus [9] = assay: Anti-psoriasis effect in IMQ-induced female BALB/c mouse assessed as reduction in psoriasis area at 20 mg/kg administered topically as 0.3 % ointment pretreated with IMQ for 6 hrs followed by compound addition once daily for 7 days; assay type: functional, organism-based; conditions: time 7.0 day
Mus musculus [10] = assay: Anti-inflammatory activity in IMQ-induced psoriasis in female BALB/c mouse assessed as reduction in IL-1beta mRNA level at 20 mg/kg administered topically as 0.3 % ointment pretreated with IMQ for 6 hrs followed by compound addition once daily for 7 days by q-PCR analysis; assay type: functional, organism-based; conditions: time 7.0 day
[11] = Metabolic stability in rat liver microsomes assessed as half life at 1 uM incubated upto 60 mins in presence of NADPH by LC-MS/MS analysis; assay type: ADME, Microsome
Mus musculus [12] = assay: Anti-psoriasis effect in IMQ-induced female BALB/c mouse assessed as reduction in severity of skin erythema at 20 mg/kg administered topically as 0.3 % ointment pretreated with IMQ for 6 hrs followed by compound addition once daily for 7 days; assay type: functional, organism-based; conditions: time 7.0 day
Mus musculus [13] = assay: Anti-psoriasis effect in female BALB/c mouse model assessed as increase in K10 protein expression at 20 mg/kg administered topically as 0.3 % ointment pretreated with IMQ for 6 hrs followed by compound addition once daily for 7 days by Western blotting analysis; assay type: functional, organism-based; conditions: time 7.0 day
HaCaT [14] = assay: Anti-psoriasis effect in M5-stimulated human HaCaT cells assessed as upregulation of K1 protein expression at 20 uM pretreated with M5 followed by compound addition and measured after 24 hrs by Western blotting analysis; assay type: functional, cell-based
HaCaT [15] = assay: Anti-inflammatory activity in M5- stimulated human HaCaT cells assessed as reduction in IL-17 mRNA level incubated for 24 hrs by q-PCR analysis; assay type: functional, cell-based; conditions: dose 5-20 µM
Mus musculus [16] = assay: Anti-psoriasis effect in female BALB/c mouse model assessed as increase in K1 protein expression at 20 mg/kg administered topically as 0.3 % ointment pretreated with IMQ for 6 hrs followed by compound addition once daily for 7 days by Western blotting analysis; assay type: functional, organism-based; conditions: time 7.0 day
Mus musculus [17] = assay: Anti-psoriasis effect in female BALB/c mouse model assessed as reduction in K17 protein expression at 20 mg/kg administered topically as 0.3 % ointment pretreated with IMQ for 6 hrs followed by compound addition once daily for 7 days by Western blotting analysis; assay type: functional, organism-based; conditions: time 7.0 day
Mus musculus [18] = assay: Anti-psoriasis effect in IMQ-induced female BALB/c mouse model assessed as reduction in spinous layer thickness at 20 mg/kg administered topically as 0.3 % ointment pretreated with IMQ for 6 hrs followed by compound addition once daily for 7 days by H and E staining based analysis; assay type: functional, organism-based; conditions: time 7.0 day
[19] = Drug absorption in rat skin assessed as skin permeability by measuring cumulative transdermal amount per unit area administered topically as 0.3% ointment at 100 mg by HPLC analysis; assay type: ADME, tissue-based, Skin of body; conditions: in vivo, topical_or_ocular
Mus musculus [20] = assay: Anti-inflammatory activity in IMQ-induced psoriasis in female BALB/c mouse assessed as reduction in CXCL-2 mRNA level at 20 mg/kg administered topically as 0.3 % ointment pretreated with IMQ for 6 hrs followed by compound addition once daily for 7 days by q-PCR analysis; assay type: functional, organism-based; conditions: time 7.0 day
Mus musculus [21] = assay: Anti-psoriasis effect in IMQ-induced female BALB/c mouse assessed as reduction in psoriasis severity index score at 20 mg/kg administered topically as 0.3 % ointment pretreated with IMQ for 6 hrs followed by compound addition once daily for 7 days; assay type: functional, organism-based; conditions: time 7.0 day
RAW264.7 [22] = assay: Anti-inflammatory activity in LPS-stimulated mouse RAW264.7 cells assessed as reduction in IL-1beta mRNA level pretreated with compound for 2 hrs followed by LPS stimulation and measured after 6 hrs by q-PCR analysis; assay type: functional, cell-based; conditions: dose 5-20 µM, time 8.0 hrs
HaCaT [23] = assay: Inhibition of CREB phosphorylation in human HaCaT cells assessed as increase in pCREB/CREB ratio at 20 uM incubated for 2 hrs by Western blotting analysis; assay type: cell-based
Mus musculus [24] = assay: Anti-psoriasis effect in IMQ-induced female BALB/c mouse model assessed as reduction in abnormal rete ridges at 20 mg/kg administered topically as 0.3 % ointment pretreated with IMQ for 6 hrs followed by compound addition once daily for 7 days by H and E staining based analysis; assay type: functional, organism-based; conditions: time 7.0 day
Mus musculus [25] = assay: Anti-psoriasis effect in female BALB/c mouse model assessed as reduction in K6 protein expression at 20 mg/kg administered topically as 0.3 % ointment pretreated with IMQ for 6 hrs followed by compound addition once daily for 7 days by Western blotting analysis; assay type: functional, organism-based; conditions: time 7.0 day
Mus musculus [26] = assay: Anti-inflammatory activity in IMQ-induced psoriasis in female BALB/c mouse assessed as reduction in CCL-20 mRNA level at 20 mg/kg administered topically as 0.3 % ointment pretreated with IMQ for 6 hrs followed by compound addition once daily for 7 days by q-PCR analysis; assay type: functional, organism-based; conditions: time 7.0 day
HaCaT [27] = assay: Cytotoxicity against human HaCaT cells assessed as reduction in cell viability at 5 to 80 uM incubated for 24 hrs by CCK-8 assay; assay type: toxicity, cell-based; conditions: dose 5-80 µM
Mus musculus [28] = assay: Anti-psoriasis effect in IMQ-induced female BALB/c mouse assessed as decrease in erythema scores at 20 mg/kg administered topically as 0.3 % ointment pretreated with IMQ for 6 hrs followed by compound addition once daily for 7 days; assay type: functional, organism-based; conditions: time 7.0 day

COC(=O)[C@H]1C[C@@H](Oc2c(O)ccc3cc(-c4ccc(OC(F)F)c(OCC5CC5)c4)oc23)CN1
IC50 [1]: 5.91 µM
Activity (Mus musculus [2]): Active
IC50 [3]: 1.73 µM
Activity (RAW264.7 [4]): Dose-dependent-effect
Activity (Mus musculus [5]): Active
Activity (Mus musculus [6]): Active
Activity (HaCaT [7]): Dose-dependent-effect
Jss [8]: 0.43 ug/cm2.hr
Activity (Mus musculus [9]): Active
Activity (Mus musculus [10]): Active
half-life at 1 µM [11]: 22.9 min
Activity (Mus musculus [12]): Active
Activity (Mus musculus [13]): Active
Activity (HaCaT [14]): Active
Activity (HaCaT [15]): Dose-dependent-effect
Activity (Mus musculus [16]): Active
Activity (Mus musculus [17]): Active
Activity (Mus musculus [18]): Active
Drug absorption [19]: 15.78 microg/cm2
Activity (Mus musculus [20]): Active
Activity (Mus musculus [21]): Active
Activity (RAW264.7 [22]): Dose-dependent-effect
inhibition (HaCaT [23]): Active
Activity (Mus musculus [24]): Active
Activity (Mus musculus [25]): Active
Activity (Mus musculus [26]): Active
Activity (HaCaT [27]): Non-toxic
Activity (Mus musculus [28]): Active
